Experimental data published in patent US20100160454A1, “ANTIMICROBIAL AGENTS, COMPOSITIONS AND PRODUCTS CONTAINING THE SAME, AND METHODS OF USING THE COMPOSITIONS AND PRODUCTS” (Eastman Chemical Company, priority 2008, published 2010).

Assays:
Test in all cases: Microbiological challenge testing in BPW broth, graded subculture counts
Format in all cases: cell-based
Aeromonas sp. Wild type = tested on: Aeromonas sp. Wild type
Outline: (§1)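 Challenge substrates of BPW plus 1% dextrose containing the test material (w/v) or broth alone were inoculated to 10^5–10^6 CFU/mL. Bacteria had been precultured in dextrose TSB at 35 °C for at least 96 h. CFU/mL came from plate count × dilution factor on PCA after ≥48 h at 35 °C.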

[1] = tested on: Burkholderia cepacia Wild type; conditions: B. cepacia
Outline: as §1

[2] = tested on: Escherichia coli ATCC 25922; conditions: E. Coli
Outline: as §1

[3] = tested on: Proteus vulgaris Wild type
Outline: as §1

[4] = tested on: Staphylococcus aureus ATCC 25923; conditions: S. aureus
Outline: as §1

[5] = tested on: Staphylococcus epidermidis ATCC 12228
Outline: as §1

OCC1CCC(CO)CC1 (stereo not drawn) [1,4-CHDM, 1,4-cyclohexanedimethanol]
Aeromonas sp growth grade, 3 day (Aeromonas sp. Wild type; 0.5% weight/volume): 5 (More than 10,000 colonies estimated (thus more than 100,000 CFU/mL)) | Aeromonas sp growth grade, 14 day (Aeromonas sp. Wild type; 0.5% weight/volume): 4 (1000 to 10,000 colonies countable (thus 10,000 CFU/mL to 100,000 CFU/mL)) | Aeromonas sp growth grade, 30 day (Aeromonas sp. Wild type; 0.5% weight/volume): 4 (1000 to 10,000 colonies countable (thus 10,000 CFU/mL to 100,000 CFU/mL)) | Aeromonas sp growth grade, 3 day (Aeromonas sp. Wild type; 1.25% weight/volume): 4 (1000 to 10,000 colonies countable (thus 10,000 CFU/mL to 100,000 CFU/mL)) | Aeromonas sp growth grade, 14 day (Aeromonas sp. Wild type; 1.25% weight/volume): 3 (100 to 1000 colonies (thus 1000 to 10,000 CFU/mL)) | Aeromonas sp growth grade, 30 day (Aeromonas sp. Wild type; 1.25% weight/volume): 2 (52 to 100 colonies counted (thus 520 to 1000 CFU/mL)) | Aeromonas sp growth grade, 3 day (Aeromonas sp. Wild type; 2.5% weight/volume): 3 (100 to 1000 colonies (thus 1000 to 10,000 CFU/mL)) | Aeromonas sp growth grade, 14 day (Aeromonas sp. Wild type; 2.5% weight/volume): 1 (0 to 51 colonies counted (thus 10 to 510 CFU/mL based on 0.1-mL sample)) | Aeromonas sp growth grade, 30 day (Aeromonas sp. Wild type; 2.5% weight/volume): 0 | Aeromonas sp growth grade, 3 day (Aeromonas sp. Wild type; 5.0% weight/volume): 0 | Aeromonas sp growth grade, 14 day (Aeromonas sp. Wild type; 5.0% weight/volume): 0 | Aeromonas sp growth grade, 30 day (Aeromonas sp. Wild type; 5.0% weight/volume): 0 | Grade ([1]; 0.5% (wt/vol), 3 day): 4 (1000 to 10,000 colonies countable (thus 10,000 CFU/mL to 100,000 CFU/mL)) | Grade ([1]; 0.5% (wt/vol), 14 day): 4 (1000 to 10,000 colonies countable (thus 10,000 CFU/mL to 100,000 CFU/mL)) | Grade ([1]; 0.5% (wt/vol), 30 day): 4 (1000 to 10,000 colonies countable (thus 10,000 CFU/mL to 100,000 CFU/mL)) | Grade ([1]; 1.25% (wt/vol), 3 day): 4 (1000 to 10,000 colonies countable (thus 10,000 CFU/mL to 100,000 CFU/mL)) | Grade ([1]; 1.25% (wt/vol), 14 day): 2 (52 to 100 colonies counted (thus 520 to 1000 CFU/mL)) | Grade ([1]; 1.25% (wt/vol), 30 day): 4 (1000 to 10,000 colonies countable (thus 10,000 CFU/mL to 100,000 CFU/mL)) | Grade ([1]; 2.5% (wt/vol), 3 day): 0 | Grade ([1]; 2.5% (wt/vol), 14 day): 0 | Grade ([1]; 2.5% (wt/vol), 30 day): 0 | Grade ([1]; 5.0% (wt/vol), 3 day): 0 | Grade ([1]; 5.0% (wt/vol), 14 day): 0 | Grade ([1]; 5.0% (wt/vol), 30 day): 0 | Grade ([2]; 0.5% (wt/vol), 3 day): 5 (More than 10,000 colonies estimated (thus more than 100,000 CFU/mL)) | Grade ([2]; 0.5% (wt/vol), 14 day): 4 (1000 to 10,000 colonies countable (thus 10,000 CFU/mL to 100,000 CFU/mL)) | Grade ([2]; 0.5% (wt/vol), 30 day): 4 (1000 to 10,000 colonies countable (thus 10,000 CFU/mL to 100,000 CFU/mL)) | Grade ([2]; 1.25% (wt/vol), 3 day): 4 (1000 to 10,000 colonies countable (thus 10,000 CFU/mL to 100,000 CFU/mL)) | Grade ([2]; 1.25% (wt/vol), 14 day): 4 (1000 to 10,000 colonies countable (thus 10,000 CFU/mL to 100,000 CFU/mL)) | Grade ([2]; 1.25% (wt/vol), 30 day): 4 (1000 to 10,000 colonies countable (thus 10,000 CFU/mL to 100,000 CFU/mL)) | Grade ([2]; 2.5% (wt/vol), 3 day): 3 (100 to 1000 colonies (thus 1000 to 10,000 CFU/mL)) | Grade ([2]; 2.5% (wt/vol), 14 day): 2 (52 to 100 colonies counted (thus 520 to 1000 CFU/mL)) | Grade ([2]; 2.5% (wt/vol), 30 day): 0 | Grade ([2]; 5.0% (wt/vol), 3 day): 0 | Grade ([2]; 5.0% (wt/vol), 14 day): 0 | Grade ([2]; 5.0% (wt/vol), 30 day): 0 | P. vulgaris growth grade, 3 day ([3]; 0.5% weight/volume): 4 (1000 to 10,000 colonies countable (thus 10,000 CFU/mL to 100,000 CFU/mL)) | P. vulgaris growth grade, 13 day ([3]; 0.5% weight/volume): 4 (1000 to 10,000 colonies countable (thus 10,000 CFU/mL to 100,000 CFU/mL)) | P. vulgaris growth grade, 30 day ([3]; 0.5% weight/volume): 4 (1000 to 10,000 colonies countable (thus 10,000 CFU/mL to 100,000 CFU/mL)) | P. vulgaris growth grade, 3 day ([3]; 1.25% weight/volume): 3 (100 to 1000 colonies (thus 1000 to 10,000 CFU/mL)) | P. vulgaris growth grade, 13 day ([3]; 1.25% weight/volume): 2 (52 to 100 colonies counted (thus 520 to 1000 CFU/mL)) | P. vulgaris growth grade, 30 day ([3]; 1.25% weight/volume): 0 | P. vulgaris growth grade, 3 day ([3]; 2.5% weight/volume): 1 (0 to 51 colonies counted (thus 10 to 510 CFU/mL based on 0.1-mL sample)) | P. vulgaris growth grade, 13 day ([3]; 2.5% weight/volume): 0 | P. vulgaris growth grade, 30 day ([3]; 2.5% weight/volume): 0 | P. vulgaris growth grade, 3 day ([3]; 5.0% weight/volume): 0 | P. vulgaris growth grade, 13 day ([3]; 5.0% weight/volume): 0 | P. vulgaris growth grade, 30 day ([3]; 5.0% weight/volume): 0 | Grade ([4]; 0.5% (wt/vol), 3 day): 4 (1000 to 10,000 colonies countable (thus 10,000 CFU/mL to 100,000 CFU/mL)) | Grade ([4]; 0.5% (wt/vol), 14 day): 4 (1000 to 10,000 colonies countable (thus 10,000 CFU/mL to 100,000 CFU/mL)) | Grade ([4]; 0.5% (wt/vol), 30 day): 4 (1000 to 10,000 colonies countable (thus 10,000 CFU/mL to 100,000 CFU/mL)) | Grade ([4]; 1.25% (wt/vol), 3 day): 3 (100 to 1000 colonies (thus 1000 to 10,000 CFU/mL)) | Grade ([4]; 1.25% (wt/vol), 14 day): 2.7 | Grade ([4]; 1.25% (wt/vol), 30 day): 4 (1000 to 10,000 colonies countable (thus 10,000 CFU/mL to 100,000 CFU/mL)) | Grade ([4]; 2.5% (wt/vol), 3 day): 1.7 | Grade ([4]; 2.5% (wt/vol), 14 day): 1 (0 to 51 colonies counted (thus 10 to 510 CFU/mL based on 0.1-mL sample)) | Grade ([4]; 2.5% (wt/vol), 30 day): 0 | Grade ([4]; 5.0% (wt/vol), 3 day): 0 | Grade ([4]; 5.0% (wt/vol), 14 day): 0 | Grade ([4]; 5.0% (wt/vol), 30 day): 0 | S. epidermidis growth grade, 3 day ([5]; 0.5% weight/volume): 4 (1000 to 10,000 colonies countable (thus 10,000 CFU/mL to 100,000 CFU/mL)) | S. epidermidis growth grade, 13 day ([5]; 0.5% weight/volume): 4 (1000 to 10,000 colonies countable (thus 10,000 CFU/mL to 100,000 CFU/mL)) | S. epidermidis growth grade, 30 day ([5]; 0.5% weight/volume): 4 (1000 to 10,000 colonies countable (thus 10,000 CFU/mL to 100,000 CFU/mL)) | S. epidermidis growth grade, 3 day ([5]; 1.25% weight/volume): 2 (52 to 100 colonies counted (thus 520 to 1000 CFU/mL)) | S. epidermidis growth grade, 13 day ([5]; 1.25% weight/volume): 0.7 | S. epidermidis growth grade, 30 day ([5]; 1.25% weight/volume): 2 (52 to 100 colonies counted (thus 520 to 1000 CFU/mL)) | S. epidermidis growth grade, 3 day ([5]; 2.5% weight/volume): 0.7 | S. epidermidis growth grade, 13 day ([5]; 2.5% weight/volume): 0 | S. epidermidis growth grade, 30 day ([5]; 2.5% weight/volume): 0 | S. epidermidis growth grade, 3 day ([5]; 5.0% weight/volume): 0 | S. epidermidis growth grade, 13 day ([5]; 5.0% weight/volume): 0 | S. epidermidis growth grade, 30 day ([5]; 5.0% weight/volume): 0
